Like-named read-outs stand apart in the source and are kept apart here.
Key:
[1] = system: E. coli 736; experiment: In vivo activity alone and in combination (PD50, FIC); conditions: Escherichia coli, sc, alone
Protocol: (§1) In Tables 9-14, the results of the in vivo activity against certain microorganisms of compounds I, M and N as given. […] The results in these Tables and the PD50 's were determined by the procedure set forth on page 160 in Beskid et al., Antimicrobial Agents and Chemotherapy, Vol. 20, No. 2 pp. 159-167 (Aug. 1981) for "in vivo studies".
(§2) In the Tables, the fractional inhibitory concentration index (FIC) for synergistic combination of a compound of this invention (X) with known antibiotic compound (Y) is determined by the following formula:
(§3) FIC=(PD50 (X combination)/PD50 (X alone)+(PD50 (Y
(§4) combination)/PD50 (Y alone)
(§5) An FIC of ≤0.60 is indicative of synergy. The synergy rating in the Tables is as follows:
(§6) In the combination, the parts are parts by weight, i.e. 10 to 1 is 10 parts by weight to 1 part by weight.

[2] = system: K. pneumoniae 503-990A; experiment: as above; conditions: sc; for ED50: Klebsiella pneumoniae, 503990A, alone
Protocol: as §1, §2, §3, §4, §5, §6

[3] = system: E. coli 257; experiment: In vivo antibacterial activity (PD50); conditions: Escherichia coli, 257, sc, challenge >10^4 LD50s, 1 treatment
[4] = system: E. coli 5152; experiment: In vivo antibacterial activity (PD50); conditions: Escherichia coli, 5152, sc, 2 treatments
[5] = system: E. aerogenes 8; experiment: In vivo antibacterial activity (PD50); conditions: Klebsiella aerogenes, 8, sc, read-out: PD50, sc, 2 treatments
[6] = system: S. marcescens SM; experiment: In vivo antibacterial activity (PD50); conditions: Serratia marcescens; sc; challenge 489 LD50s; 2 treatments; Table 11
[7] = system: P. aeruginosa 503-56; experiment: In vivo antibacterial activity (PD50); conditions: Pseudomonas aeruginosa, 50356, sc, challenge 50 LD50s, 2 treatments, Table 11
[8] = system: S. aureus Smith; experiment: In vivo antibacterial activity (PD50); conditions: Staphylococcus aureus, sc, challenge 70 LD50s, 2 treatments, Table 11
[9] = system: S. pyogenes 4; experiment: In vivo antibacterial activity (PD50); conditions: Streptococcus pyogenes, 4, sc, sc, 2 treatments, read-out: PD50
[10] = system: S. pneumoniae 6302; experiment: In vivo antibacterial activity (PD50); conditions: Streptococcus pneumoniae, 6302, sc, challenge 1000 LD50s, 1 treatment, Table 11
[11] = system: S. faecalis C1; experiment: In vivo antibacterial activity (PD50); conditions: Enterococcus faecalis, C1; sc; challenge 10 LD50s; 1 treatment; Table 11
[12] = system: P. aeruginosa 6148B; experiment: In vivo antibacterial activity (PD50); conditions: Pseudomonas aeruginosa, sc
[13] = system: P. aeruginosa 6720; experiment: In vivo antibacterial activity (PD50); conditions: Pseudomonas aeruginosa, 6720, sc, 2 treatments
[14] = system: P. aeruginosa 6719; experiment: In vivo antibacterial activity (PD50); conditions: Pseudomonas aeruginosa, 6719, sc
[15] = system: P. aeruginosa 8710; experiment: In vivo antibacterial activity (PD50); conditions: Pseudomonas aeruginosa, 8710, sc
[16] = system: P. aeruginosa 6799; experiment: In vivo antibacterial activity (PD50); conditions: Pseudomonas aeruginosa, 6799, sc, read-out: PD50
[17] = system: K. pneumoniae HE7; experiment: In vivo antibacterial activity (PD50); conditions: Klebsiella pneumoniae, HE7, sc, 2 treatments
[18] = system: E. cloacae 6951; experiment: In vivo antibacterial activity (PD50); conditions: Enterobacter cloacae, 6951, sc, 2 treatments
[19] = system: S. marcescens S3; experiment: In vivo antibacterial activity (PD50); conditions: Serratia marcescens, S3; sc; challenge 32 LD50s; 2 treatments; Table 11; read-out: PD50
[20] = system: E. coli 387-1; experiment: In vivo antibacterial activity (PD50); conditions: Escherichia coli, 3871; sc; challenge 127 LD50s; 1 treatment; Table 11
[21] = system: K. pneumoniae 8357; experiment: animal or person; type: in vivo; conditions: Klebsiella pneumoniae, 8357, sc, read-out: PD50
[22] = system: E. cloacae 214; experiment: In vivo antibacterial activity (PD50); conditions: Enterobacter cloacae, sc, challenge 3.8 LD50s, 2 treatments, Table 11
Protocol: as §1

[23] = system: S. schottmuelleri; experiment: In vivo antibacterial activity (PD50); conditions: sc; challenge 163 LD50s; 1 treatment; Table 11
Protocol: as §1

[24] = system: C. freundii 8ASM; experiment: In vivo antibacterial activity (PD50); conditions: Citrobacter freundii, sc, challenge 1000 LD50s, 1 treatment, Table 11
[25] = system: P. vulgaris 100; experiment: In vivo antibacterial activity (PD50); conditions: Proteus vulgaris; sc; challenge 100 LD50s; 1 treatment; Table 11
[26] = system: P. mirabilis 190; experiment: In vivo antibacterial activity (PD50); conditions: Proteus mirabilis, sc, challenge 10^4 LD50s, 1 treatment, Table 11
[27] = system: E. cloacae 4633; experiment: In vivo activity alone and in combination (PD50, FIC); conditions: Enterobacter cloacae, 4633, sc, read-out: PD50 (alone)
Protocol: as §1, §2, §3, §4, §5, §6

[28] = system: E. coli BC5524; experiment: as above
Protocol: as §1, §2, §3, §4, §5, §6

## CC1(C)S[C@@H]2[C@H](NC(=O)[C@H](N)c3ccccc3)C(=O)N2[C@H]1C(=O)O [Ampicillin, ampicillin, reference compound]
[1]
  ED50: 5 mg/kg
[2]
  ED50: 29 mg/kg
  PD50 (alone): 16 mg/kg
[2]; Table 14 line (1)
  ED50: 58 mg/kg
[2]; Table 14 line (2)
  ED50: 10 mg/kg

## CO/N=C(\C(=O)N[C@@H]1C(=O)N2C(C(=O)O)=C(CSc3nc(=O)c(=O)[nH]n3C)CS[C@H]12)c1csc(N)n1 [Ceftriaxone, ceftriaxone]
[3]; Table 10
  ED50: < 1 mg/kg
[3]; Table 11
  ED50: < 1 mg/kg
[4]; challenge 2717 LD50s, Table 10
  ED50: < 5 mg/kg
[4]; challenge 4780 LD50s, Table 11
  ED50: < 2 mg/kg
[5]; challenge 10 LD50s, Table 11
  ED50: 6.9 mg/kg
[5]; challenge 24 LD50s, Table 10
  ED50: 6.8 mg/kg
[6]
  ED50: < 2 mg/kg
[7]
  ED50: > 250 mg/kg
[8]
  ED50: 3.2 mg/kg
[9]; challenge 3.3 LD50s, Table 11
  ED50: < 2 mg/kg
[9]; challenge 100 LD50s, Table 10
  ED50: > 2 mg/kg
[10]
  ED50: 0.22 mg/kg
[11]
  ED50: 50 mg/kg
[12]; challenge 4.5 LD50s, 3 treatments, Table 10
  ED50: < 5 mg/kg
[12]; challenge 32 LD50s, 2 treatments, Table 11
  ED50: 62 mg/kg
[12]; challenge 33 LD50s, 3 treatments, Table 10
  ED50: 8 mg/kg
[13]; challenge 35 LD50s, Table 11
  ED50: 15 mg/kg
[13]; challenge 3511 LD50s, Table 10
  ED50: 14 mg/kg
[14]; challenge 2249 LD50s, 3 treatments, Table 10
  ED50: 18 mg/kg
[14]; challenge 2290 LD50s, 2 treatments, Table 11
  ED50: 15 mg/kg
[15]; alone, challenge 1738 LD50s, Table 13, read-out: PD50 (alone)
  ED50: 41 mg/kg
[15]; challenge >10^4 LD50s, 2 treatments, Table 11, read-out: PD50
  ED50: 31 mg/kg
[16]
  ED50: < 10 mg/kg
[16]; sc, challenge 71 LD50s, 2 treatments, Table 11
  ED50: 16 mg/kg
[17]; challenge 750 LD50s, Table 10
  ED50: < 1 mg/kg
[17]; challenge 1000 LD50s, Table 11
  ED50: 0.39 mg/kg
[18]; challenge 562 LD50s, Table 10
  ED50: < 1 mg/kg
[18]; challenge 3162 LD50s, Table 11
  ED50: 0.03 mg/kg
[19]
  ED50: 0.03 mg/kg
[20]
  ED50: 0.09 mg/kg
[21]
  ED50: 0.03 mg/kg
[22]
  ED50: < 10 mg/kg
[23]
  ED50: < 0.5 mg/kg
[24]
  ED50: 0.15 mg/kg
[25]
  ED50: 0.05 mg/kg
[26]
  ED50: 7 µg/kg

## CC(=O)OCC1=C(C(=O)O)N2C(=O)[C@@H](NC(=O)Cc3cccs3)[C@H]2SC1 [Cephalothin, cephalothin, reference compound]
[27]
  ED50: > 250 mg/kg
[28]; Escherichia coli, BC5524, sc, read-out: PD50 (alone), sc
  ED50: < 250 mg/kg
[28]; sc
  PD50 (alone): > 250 mg/kg

From patent US4605744A, “Imidazole derivatives” (Hoffmann-La Roche Inc., priority 1985, dated 1986)
